In publication PMC11173508, “Pharmacokinetics and Tissue Distribution of Itampolin A following Intragastric and Intravenous Administration in Rats Using Ultra-High-Performance Liquid Chromatography–Tandem Mass Spectrometry” (Molecules, 2024):

Experiment: Stability of itampolin A in biological samples under different storage conditions
Assay type: physicochemical, rat
Settings: for Stability, Autosampler 4 °C for 24 h / Stability, Long-Term (at −80 °C for 30 Days) / Stability, Short-Term (at Room Temperature for 4 h) / Stability, Three Freeze–Thaw Cycles: n = 5, in %
Protocol: The stability of itampolin A was investigated by analyzing five replicates of the samples at three QC levels (3, 40, and 1280 ng/mL) under different storage conditions: (1) 4 h exposure at room temperature, (2) 24 h storage in the autosampler at 4 °C, (3) three freeze–thaw cycles, and (4) storage at −80 °C for 30 days. The samples were considered stable if the average percentage concentration deviation was within 15% of the actual value.

Stability, Autosampler 4 °C for 24 h (brain, spiked 3 ng/mL): 98.3 ± 5.8
Stability, Long-Term (at −80 °C for 30 Days) (brain, spiked 3 ng/mL): 94.3 ± 8.7
Stability, Short-Term (at Room Temperature for 4 h) (brain, spiked 3 ng/mL): 112.6 ± 3.9
Stability, Three Freeze–Thaw Cycles (brain, spiked 3 ng/mL): 99.5 ± 6.3
Stability, Autosampler 4 °C for 24 h (brain, spiked 40 ng/mL): 108.0 ± 4.0
Stability, Long-Term (at −80 °C for 30 Days) (brain, spiked 40 ng/mL): 95.0 ± 2.9
Stability, Short-Term (at Room Temperature for 4 h) (brain, spiked 40 ng/mL): 99.9 ± 10.9
Stability, Three Freeze–Thaw Cycles (brain, spiked 40 ng/mL): 93.7 ± 7.8
Stability, Autosampler 4 °C for 24 h (brain, spiked 1280 ng/mL): 96.8 ± 8.3
Stability, Long-Term (at −80 °C for 30 Days) (brain, spiked 1280 ng/mL): 94.6 ± 5.7
Stability, Short-Term (at Room Temperature for 4 h) (brain, spiked 1280 ng/mL): 99.7 ± 2.9
Stability, Three Freeze–Thaw Cycles (brain, spiked 1280 ng/mL): 104.3 ± 2.6
Stability, Autosampler 4 °C for 24 h (heart, spiked 3 ng/mL): 87.2 ± 7.2
Stability, Long-Term (at −80 °C for 30 Days) (heart, spiked 3 ng/mL): 103.3 ± 6.8
Stability, Short-Term (at Room Temperature for 4 h) (heart, spiked 3 ng/mL): 97.7 ± 3.6
Stability, Three Freeze–Thaw Cycles (heart, spiked 3 ng/mL): 94.3 ± 6.5
Stability, Autosampler 4 °C for 24 h (heart, spiked 40 ng/mL): 103.9 ± 3.5
Stability, Long-Term (at −80 °C for 30 Days) (heart, spiked 40 ng/mL): 97.4 ± 5.3
Stability, Short-Term (at Room Temperature for 4 h) (heart, spiked 40 ng/mL): 100.3 ± 2.6
Stability, Three Freeze–Thaw Cycles (heart, spiked 40 ng/mL): 108.3 ± 9.7
Stability, Autosampler 4 °C for 24 h (heart, spiked 1280 ng/mL): 94.0 ± 7.3
Stability, Long-Term (at −80 °C for 30 Days) (heart, spiked 1280 ng/mL): 95.3 ± 5.4
Stability, Short-Term (at Room Temperature for 4 h) (heart, spiked 1280 ng/mL): 89.3 ± 5.3
Stability, Three Freeze–Thaw Cycles (heart, spiked 1280 ng/mL): 98.9 ± 4.9
Stability, Autosampler 4 °C for 24 h (intestine, spiked 3 ng/mL): 99.5 ± 5.3
Stability, Long-Term (at −80 °C for 30 Days) (intestine, spiked 3 ng/mL): 96.3 ± 7.9
Stability, Short-Term (at Room Temperature for 4 h) (intestine, spiked 3 ng/mL): 100.1 ± 6.1
Stability, Three Freeze–Thaw Cycles (intestine, spiked 3 ng/mL): 108.7 ± 2.9
Stability, Autosampler 4 °C for 24 h (intestine, spiked 40 ng/mL): 106.4 ± 8.9
Stability, Long-Term (at −80 °C for 30 Days) (intestine, spiked 40 ng/mL): 85.9 ± 7.4
Stability, Short-Term (at Room Temperature for 4 h) (intestine, spiked 40 ng/mL): 101.3 ± 2.3
Stability, Three Freeze–Thaw Cycles (intestine, spiked 40 ng/mL): 98.3 ± 5.0
Stability, Autosampler 4 °C for 24 h (intestine, spiked 1280 ng/mL): 102.3 ± 4.1
Stability, Long-Term (at −80 °C for 30 Days) (intestine, spiked 1280 ng/mL): 89.0 ± 7.9
Stability, Short-Term (at Room Temperature for 4 h) (intestine, spiked 1280 ng/mL): 99.7 ± 3.3
Stability, Three Freeze–Thaw Cycles (intestine, spiked 1280 ng/mL): 107.5 ± 8.2
Stability, Autosampler 4 °C for 24 h (kidney, spiked 3 ng/mL): 93.0 ± 8.9
Stability, Long-Term (at −80 °C for 30 Days) (kidney, spiked 3 ng/mL): 89.1 ± 7.1
Stability, Short-Term (at Room Temperature for 4 h) (kidney, spiked 3 ng/mL): 98.6 ± 4.0
Stability, Three Freeze–Thaw Cycles (kidney, spiked 3 ng/mL): 97.1 ± 6.7
Stability, Autosampler 4 °C for 24 h (kidney, spiked 40 ng/mL): 100.7 ± 7.6
Stability, Long-Term (at −80 °C for 30 Days) (kidney, spiked 40 ng/mL): 97.3 ± 8.5
Stability, Short-Term (at Room Temperature for 4 h) (kidney, spiked 40 ng/mL): 106.8 ± 7.3
Stability, Three Freeze–Thaw Cycles (kidney, spiked 40 ng/mL): 98.4 ± 5.0
Stability, Autosampler 4 °C for 24 h (kidney, spiked 1280 ng/mL): 92.7 ± 4.2
Stability, Long-Term (at −80 °C for 30 Days) (kidney, spiked 1280 ng/mL): 110.4 ± 5.9
Stability, Short-Term (at Room Temperature for 4 h) (kidney, spiked 1280 ng/mL): 99.8 ± 8.1
Stability, Three Freeze–Thaw Cycles (kidney, spiked 1280 ng/mL): 98.8 ± 3.6
Stability, Autosampler 4 °C for 24 h (liver, spiked 3 ng/mL): 96.3 ± 8.2
Stability, Long-Term (at −80 °C for 30 Days) (liver, spiked 3 ng/mL): 93.7 ± 5.1
Stability, Short-Term (at Room Temperature for 4 h) (liver, spiked 3 ng/mL): 98.2 ± 7.5
Stability, Three Freeze–Thaw Cycles (liver, spiked 3 ng/mL): 103.3 ± 4.7
Stability, Autosampler 4 °C for 24 h (liver, spiked 40 ng/mL): 98.8 ± 4.8
Stability, Long-Term (at −80 °C for 30 Days) (liver, spiked 40 ng/mL): 87.1 ± 6.8
Stability, Short-Term (at Room Temperature for 4 h) (liver, spiked 40 ng/mL): 93.5 ± 2.5
Stability, Three Freeze–Thaw Cycles (liver, spiked 40 ng/mL): 96.4 ± 8.1
Stability, Autosampler 4 °C for 24 h (liver, spiked 1280 ng/mL): 113.6 ± 4.2
Stability, Long-Term (at −80 °C for 30 Days) (liver, spiked 1280 ng/mL): 97.9 ± 5.2
Stability, Short-Term (at Room Temperature for 4 h) (liver, spiked 1280 ng/mL): 102.9 ± 6.5
Stability, Three Freeze–Thaw Cycles (liver, spiked 1280 ng/mL): 95.1 ± 9.2
Stability, Autosampler 4 °C for 24 h (lung, spiked 3 ng/mL): 102.5 ± 9.3
Stability, Long-Term (at −80 °C for 30 Days) (lung, spiked 3 ng/mL): 95.6 ± 4.9
Stability, Short-Term (at Room Temperature for 4 h) (lung, spiked 3 ng/mL): 108.7 ± 5.1
Stability, Three Freeze–Thaw Cycles (lung, spiked 3 ng/mL): 95.9 ± 7.2
Stability, Autosampler 4 °C for 24 h (lung, spiked 40 ng/mL): 99.3 ± 6.9
Stability, Long-Term (at −80 °C for 30 Days) (lung, spiked 40 ng/mL): 106.7 ± 8.8
Stability, Short-Term (at Room Temperature for 4 h) (lung, spiked 40 ng/mL): 103.1 ± 3.3
Stability, Three Freeze–Thaw Cycles (lung, spiked 40 ng/mL): 86.0 ± 4.2
Stability, Autosampler 4 °C for 24 h (lung, spiked 1280 ng/mL): 98.5 ±3.1
Stability, Long-Term (at −80 °C for 30 Days) (lung, spiked 1280 ng/mL): 96.4 ± 4.8
Stability, Short-Term (at Room Temperature for 4 h) (lung, spiked 1280 ng/mL): 101.2 ± 2.9
Stability, Three Freeze–Thaw Cycles (lung, spiked 1280 ng/mL): 91.4 ± 5.9
Stability, Autosampler 4 °C for 24 h (plasma, spiked 3 ng/mL): 97.3 ± 5.5
Stability, Long-Term (at −80 °C for 30 Days) (plasma, spiked 3 ng/mL): 90.5 ± 6.7
Stability, Short-Term (at Room Temperature for 4 h) (plasma, spiked 3 ng/mL): 103.9 ± 8.0
Stability, Three Freeze–Thaw Cycles (plasma, spiked 3 ng/mL): 106.8 ± 8.8
Stability, Autosampler 4 °C for 24 h (plasma, spiked 40 ng/mL): 96.6 ± 6.3
Stability, Long-Term (at −80 °C for 30 Days) (plasma, spiked 40 ng/mL): 93.6 ± 8.2
Stability, Short-Term (at Room Temperature for 4 h) (plasma, spiked 40 ng/mL): 100.1 ± 4.1
Stability, Three Freeze–Thaw Cycles (plasma, spiked 40 ng/mL): 95.3 ± 8.3
Stability, Autosampler 4 °C for 24 h (plasma, spiked 1280 ng/mL): 98.3 ± 2.9
Stability, Long-Term (at −80 °C for 30 Days) (plasma, spiked 1280 ng/mL): 95.8 ± 8.4
Stability, Short-Term (at Room Temperature for 4 h) (plasma, spiked 1280 ng/mL): 97.8 ± 4.1
Stability, Three Freeze–Thaw Cycles (plasma, spiked 1280 ng/mL): 110.6 ± 5.6
stability during processing procedures (room temperature for 4 h and autosampler for 24 h, deviation in concentration within ±15% from nominal values): stable
Stability, Autosampler 4 °C for 24 h (spleen, spiked 3 ng/mL): 103.8 ± 8.5
Stability, Long-Term (at −80 °C for 30 Days) (spleen, spiked 3 ng/mL): 89.5 ± 8.9
Stability, Short-Term (at Room Temperature for 4 h) (spleen, spiked 3 ng/mL): 96.2 ± 2.2
Stability, Three Freeze–Thaw Cycles (spleen, spiked 3 ng/mL): 98.4 ± 6.6
Stability, Autosampler 4 °C for 24 h (spleen, spiked 40 ng/mL): 105.8 ± 3.6
Stability, Long-Term (at −80 °C for 30 Days) (spleen, spiked 40 ng/mL): 102.9 ± 8.7
Stability, Short-Term (at Room Temperature for 4 h) (spleen, spiked 40 ng/mL): 100.6 ± 3.8
Stability, Three Freeze–Thaw Cycles (spleen, spiked 40 ng/mL): 112.2 ± 6.5
Stability, Autosampler 4 °C for 24 h (spleen, spiked 1280 ng/mL): 101.2 ± 4.2
Stability, Long-Term (at −80 °C for 30 Days) (spleen, spiked 1280 ng/mL): 104.1 ± 5.2
Stability, Short-Term (at Room Temperature for 4 h) (spleen, spiked 1280 ng/mL): 98.4 ± 2.1
Stability, Three Freeze–Thaw Cycles (spleen, spiked 1280 ng/mL): 92.4 ± 7.8
Stability, Autosampler 4 °C for 24 h (stomach, spiked 3 ng/mL): 87.5 ± 3.3
Stability, Long-Term (at −80 °C for 30 Days) (stomach, spiked 3 ng/mL): 92.6 ± 6.5
Stability, Short-Term (at Room Temperature for 4 h) (stomach, spiked 3 ng/mL): 100.6 ± 7.6
Stability, Three Freeze–Thaw Cycles (stomach, spiked 3 ng/mL): 103.2 ± 4.2
Stability, Autosampler 4 °C for 24 h (stomach, spiked 40 ng/mL): 104.8 ± 7.8
Stability, Long-Term (at −80 °C for 30 Days) (stomach, spiked 40 ng/mL): 95.6 ± 5.8
Stability, Short-Term (at Room Temperature for 4 h) (stomach, spiked 40 ng/mL): 99.0 ± 4.3
Stability, Three Freeze–Thaw Cycles (stomach, spiked 40 ng/mL): 114.8 ± 6.6
Stability, Autosampler 4 °C for 24 h (stomach, spiked 1280 ng/mL): 98.5 ± 2.6
Stability, Long-Term (at −80 °C for 30 Days) (stomach, spiked 1280 ng/mL): 94.1 ± 6.1
Stability, Short-Term (at Room Temperature for 4 h) (stomach, spiked 1280 ng/mL): 99.1 ± 4.2
Stability, Three Freeze–Thaw Cycles (stomach, spiked 1280 ng/mL): 97.7 ± 4.7
effect of storage on quantification (three freeze–thaw cycles and long-term storage (−80 °C for 30 days)): no effect on the quantification
SMILES: COc1c(Br)cc(C[C@H](NC(=O)Cc2ccc(OCCCNC(C)=O)cc2)C(=O)NCCc2cc(Br)c(O)c(Br)c2)cc1Br [itampolin A, Itampolin A]
